Data reported in patent US7560096B2, “Diagnostic procedures using direct injection of gaseous hyperpolarized 129Xe and associated systems and products” (Medi-Physics, Inc, priority 2000, dated 2009).
Read-outs that look alike come from different tables or passages of the source.

Key:
[1] = cited from earlier work
[2] = Relaxation of hyperpolarized gas on container surface materials (GE180 glass, high purity aluminum); type: physicochemical; settings: for ψ (relaxivity of GE180 glass for the gas): from T1 and A/V=3/R
Description: In order to calculate optimal capillary lengths, relaxivity values or estimates are needed. As a simple estimate, one can consider that an 180 cc spherical chamber of GE180 glass has a relaxation times of about 40 hr for ^3He and about 2 hr for ^129Xe. Knowing the relationship of “A/V=3/R” for a sphere, one can determine the relaxivity ψ of GE180 glass for both gases. The diffusion coefficients are noted for reference below.
The gas contacting surfaces of the injector head 300 can be formed of or coated with suitable materials to inhibit the depolarization of the gas as it travels therethrough. Examples of suitable materials include, but are not limited to, alumminosilicate glass, certain polymer materials or metallic materials or other materials as described herein. Surface coatings, such as a sputter coating of a non-depolarizing material of high purity silver or aluminum. The relaxivity of high purity aluminum for ^129Xe has been recently measured to be about 0.00225 cm/min. Metals other than aluminum which can be used include indium, gold, zinc, tin, copper, bismuth, silver, niobium, and oxides thereof. Preferably, “high purity” metals are employed (i.e., metals which are substantially free of paramagnetic or ferrous impurities) because even minute amounts of undesirable materials or contaminants may degrade the surface. Preferably, the metal is chosen such that it is well below 1 ppm in ferrous or paramagnetic impurity content.

[3] = noted for reference; cited from earlier work
[4] = cited from earlier work; remark: listed apart in the source
[5] = Bubble dissipation model (Krogh's coefficient) for gas bubbles in blood
Description: To better understand bubble dissipation, one can model a string of contiguous bubbles as a cylinder to look at the diffusion of the gas out of the “cylinder” into the surrounding fluid to analyze how the bubble volume or radius decreases with time. Presser et al., in modeling a simulation as stated above, noted that the bubble radius “r” versus time can be represented by the equation: dr/dt=−KΔP/[rln(R/r)] where “K” is Krogh's coefficient (the product of solubility “S” and diffusion coefficient “D” of the gas in the surrounding fluid), “ΔP” is the pressure difference between gas in the bubbles and gas in the alveoli and “R” is the distance from the center of the bubbles to the inner edge of the adjacent alveoli.
That is, for comparative analysis, it is believed that one can evaluate the Krogh's coefficient (S×D) for Xe relative to air. The diffusion coefficient is substantially the same and can be cancelled out. For example, Xe in H2O is about 1.9×10^−5 cm^2/s while methane and water itself are at 2 and 2.3×10^−5 cm^2/s, respectively. Thus, solubility “S” becomes the important factor.

[6] = Inhalation (breath-hold) delivery of hyperpolarized 129Xe: uptake and delivery to the brain; type: in vivo, human
Description: In addition, due to the high solubility of ^129Xe in blood and tissues, vascular and tissue imaging using inhaled hyperpolarized ^129Xe has also been proposed. Generally described, during inhalation delivery, a quantity of hyperpolarized ^129Xe is inhaled by a subject (a subject breathes in the ^129Xe gas) and the subject then holds his or her breath for a short period of time, i.e., a “breath-hold” delivery. This inhaled ^129Xe gas volume then exits the lung space and is generally taken up by the pulmonary vessels and associated blood or pulmonary vasculature at a rate of approximately 0.3% per second. For example, for an inhaled quantity of about 1 liter of hyperpolarized ^129Xe, an estimated uptake is about 3 cubic centimeters per second or a total quantity of about 40 cubic centimeters of ^129Xe over about a 15 second breath-hold period. Accordingly, it has been noted that such uptake can be used to generate images of pulnonary vasculature or even organ systems more distant from the lungs. See co-pending and co-assigned U.S. patent application Ser. No. 09/271,476 to Driehuys et al, entitled Methods for Imaging Pulmonary and Cardiac Vasculature and Evaluating Blood Flow Using Dissolved Polarized ^129Xe. Although primarily directed to inhalation delivery, this application also proposes injection of ^129Xe to replace conventional radioactive tracers in perfusion imaging methods. The contents of this application are hereby incorporated by reference as if recited in full herein.
Many researchers are also interested in the possibility of using inhaled ^129Xe for imaging white matter perfusion in the brain, renal perfusion, and the like. While the inhaled delivery ^129Xe methods are suitable, and indeed, preferable, for many MRI applications for several reasons, such as the non-invasive characteristics attendant with such a delivery to a human subject, it may not be the most efficient method to deliver a sufficiently large dose to more distant (away from the pulmonary vasculature which is proximate to the lungs) target areas of interest. In addition, due to the dilution of the inhaled ^129Xe along the perfusion delivery path, relatively large quantities of the hyperpolarized ^129Xe are typically inhaled in order to deliver a small fraction of the gas to the more distal target sites or organ systems. For example, the brain typically receives only about 13% of the total blood flow in the human body. Thus, the estimated 40 cubic centimeter quantity of hyperpolarized ^129Xe taken up into the pulmonary vessels from the 1-liter inhalation dose can be reduced to only about 5 cubic centimeters by the time it reaches the brain.
Further, the hyperpolarized state of the gas is sensitive and can decay relatively quickly due to a number of relaxation mechanisms. Indeed, the relaxation time (generally represented by a decay constant “T1”) of the ^129Xe in the blood, absent other external depolarizing factors, is estimated at T1=4.0 seconds for venous blood and T1=6.4 s for arterial blood at a magnetic field strength of about 1.5 Tesla. See Wolber et al., Spin-lattice relaxation of laser-polarized xenon in human blood, 96 Proc. Natl. Acad. Sci. USA, pp. 3664-3669 (March 1999). (The more oxygenated arterial blood provides increased polarization life over the relatively de-oxygenated venous blood). […]

[7] = Relaxation time (T1) of polarized 129Xe in blood and lung; type: physicochemical, human
Description: Further, the hyperpolarized state of the gas is sensitive and can decay relatively quickly due to a number of relaxation mechanisms. Indeed, the relaxation time (generally represented by a decay constant “T1”) of the ^129Xe in the blood, absent other external depolarizing factors, is estimated at T1=4.0 seconds for venous blood and T1=6.4 s for arterial blood at a magnetic field strength of about 1.5 Tesla. See Wolber et al., Spin-lattice relaxation of laser-polarized xenon in human blood, 96 Proc. Natl. Acad. Sci. USA, pp. 3664-3669 (March 1999). (The more oxygenated arterial blood provides increased polarization life over the relatively de-oxygenated venous blood). Therefore, for about a 5 second transit time (the time estimate for the uptaken hyperpolarized ^129Xe to travel to the brain from the pulmonary vessels), the ^129Xe polarization is reduced to about 37% of its original value. In addition, the relaxation time of the polarized ^129Xe in the lung itself is typically about 20-25 seconds due to the presence of paramagnetic oxygen. Accordingly, ^129Xe taken up in the latter portion of the breath-hold cycle can decay to have only about 50% of the starting polarization (the polarization level at the initial portion of the breath hold cycle). Thus, generally stated, the average polarization of ^129Xe entering the pulmonary blood can be estimated to be at about 75% of the starting inhaled polarization value. Taking these effects into account, the delivery to the brain of the inhaled ^129Xe can be estimated as about 1.4 cubic centimeters of the inhaled one-liter dose of ^129Xe polarized to the same level as the inhaled gas (0.75×0.37×5 cc's). […] Nonetheless, at least one researcher has made coarse images of ^129Xe in rat brains, but this inhalation administration delivery required large quantities of ^129Xe to be inhaled over a relatively long period of time. […] Unfortunately, the extended inhalation time period and/or associated large quantity dosage of the gas may not be desirable for certain clinical applications.

[8] = NMR spectra after polarized 129Xe gas injection into the vein of a rabbit; type: in vivo
Description: The signal strength at 8 seconds (FIG. 10P) being about 0.65 that of the original signal (FIG. 10A).
The rabbit survived the experiment. […] The signal strength at 8 seconds (FIG. 10P) being about 0.65 that of the original signal (FIG. 10A). The rabbit was placed in a whole body imager so that the exact location of the signal within the rabbit's body is not disclosed in the spectra. It is noted that a large quantity of the injected gas remained in the gas phase upon injection, most likely due to the size of the lumen used, about 0.5 mm.

[9] = inhalation, breath-hold; cited from earlier work
[10] = Solubilities of gases in water, plasma, blood and tissues; type: physicochemical
Description: The feasibility of gaseous ^129Xe injection, particularly for arterial injections, may appear problematic. For example, it is known that arterial injections of air can lead to an undesirable air embolus. Although with intravenous (IV) injection the introduction of air is less of a concern, great care is typically taken to avoid such occurrences. The injection of CO2 is successful because of its high solubility in blood and the body's unique ability to remove it. The solubility of CO2 in blood and plasma can be difficult to measure because it is chemically metabolized.
Nonetheless, it is believed that the solubility that is of primary interest for the discussion herein and that the CO2 metabolism can be disregarded for the purposes of this comparison.

## O [water]
[1]
  Diffusion coefficient in H2O: 2.3×10^−5 cm^2/s

## [3He] [^3He, reference compound]
[2]
  ψ (relaxivity of GE180 glass for the gas): 8.1e-06 cm/s
[3]
  D (diffusion coefficient of the gas): 2.05 cm^2/s

## [129Xe] [^129Xe]
[4]; arterial blood, about 1.5 Tesla
  Relaxation time T1 in arterial blood: 6.4 s
[4]; in the lung, presence of paramagnetic oxygen
  Relaxation time in the lung: 20 to 25 s
[4]; venous blood, about 1.5 Tesla
  Relaxation time T1 in venous blood: 4.0 s
[5]; in blood, faster than air
  Bubble dissipation rate relative to air in blood: about 11 times
[6]; from 40 cc taken up of 1-liter inhalation dose, brain receives about 13% of blood flow
  Quantity by the time it reaches the brain: about 5 cubic centimeters
[6]; inhalation
  Quantity delivered to remote target (brain) as fraction of inhaled 129Xe: about 0.14%
[6]; inhaled about 1 liter, about 15 second breath-hold
  Total quantity taken up: about 40 cubic centimeters
[6]; inhaled one-liter dose (0.75×0.37×5 cc's)
  Delivery to the brain, as 129Xe polarized to the same level as the inhaled gas: about 1.4 cubic centimeters
[6]; inhaled quantity about 1 liter
  Estimated uptake: about 3 cubic centimeters per second
[7]; about 5 second transit time from pulmonary vessels to brain
  Polarization remaining relative to original value after transit to the brain: about 37%
[7]; inhalation, breath-hold
  Average polarization of 129Xe entering the pulmonary blood, of starting inhaled polarization: about 75%
[7]; latter portion of breath-hold
  Polarization of 129Xe taken up in the latter portion of the breath-hold cycle, of starting polarization: about 50%
[2]
  ψ (relaxivity of GE180 glass for the gas): 0.00017 cm/s
[2]; high purity aluminum surface
  Relaxivity of high purity aluminum for 129Xe: about 0.00225 cm/min
[3]
  D (diffusion coefficient of the gas): 0.065 cm^2/s
[8]; about 3 cc gas injected into vein of rabbit
  Survival of the animal: survived
[8]; about 3 cc into vein of rabbit, about 8 seconds
  Phase of the injected gas in the bloodstream during acquisition: remained substantially in the gas phase
[8]; gas phase in the bloodstream, rabbit
  T1 of the gas in the blood: at least 20 seconds
[9]
  Rate of uptake of inhaled gas by pulmonary vessels and blood: approximately 0.3 % per second

## C [methane]
[1]; exponent shared with the following value
  Diffusion coefficient in H2O: 2 ×10^−5 cm^2/s

## [Xe] [Xe, xenon]
[5]; 30 μm radius bubble
  Time for a 30 μm radius bubble to dissipate: about 20 seconds
[5]; estimated from solubility ratio to air in blood
  Bubble dissipation rate (dr/dt): −1.5 μm/s
[10]; 0.167/[…], air approximated as nitrogen
  Solubility ratio of xenon gas to nitrogen gas in blood: ~11
[10]; in blood, compared with air
  Solubility relative to air: about 10 times
[1]
  Diffusion coefficient in H2O: about 1.9×10^−5 cm^2/s
